Laboratory results taken from patent publication US20140378378A1, “ERYTHROPOIETIN-DERIVED PEPTIDE AND USE THEREFOR” (priority 2011, published 2014).

Key:
[1] = test system: cerebral infarction induced Sprague-Dawley rat models; test: Cerebral infarction animal experiment: middle cerebral artery blockage/reperfusion, infarct volume by TTC dye; type: in vivo; details: 3000 IU/kg EPO injected right after reperfusion, measured after 24 hours
Description: In the present experiment, Spague-Dawley (SD) rats weighing about 280 g to about 330 g were used, which were purchased from Koatech Inc. (Seoul, Korea). The number of rats used was 39, wherein 13 of them were used as a control group and another 26 were divided into 13 in a MKX-2 treatment group and 13 in an EPO treatment group.
To induce cerebral infarction, a method of temporarily blocking a left middle cerebral artery and then reperfusing the same was used, and an intraluminal filament technique, which was modified from the Koizumi method was used. Then, each SD rat was anesthetized with a mixture gas of 70% nitrous oxide and 30% oxygen along with isoflurane (3% for induction and 2% for surgical procedure). During the surgery, an excision was made slightly leftwards from the center of the neck and the left common carotid artery was carefully separated without damaging surrounding vagus nerves. […]
The cerebral infarction area was measured by an image analyzer with LeicaQwin program (Leica Microsystem Image Solution Ltd., Cambridge, England) and a volume (mm^3) was calculated as a sum of infarct volumes (=infarct area of a slice×thickness) of the slices, and then an average and a standard deviation were calculated for each experimental group. […]

neurocytes = test: Cell survival of neurocytes after serum removal, with or without 0.1% 2-mercaptoethanol, 72 hours; type: cell-based, rat
Description: A rat pregnant for […] was cervically dislocated to sacrifice the experimental animal and the abdomen of the experimental animal was excised in an U-shape to expose the uterus in which a fetus was located. Thereafter, the fetus was taken out from the uterus and then inserted into a fetus washing medium and then washed three times. Only the head of the fetus was cut and then inserted into the fetus washing medium to wash the head three times and then the cranium of the fetus was broken to separate the brain therefrom. A knife was used to cut the cortex of the brain and tissues of the cortex were thoroughly chopped, which were then collected in the already prepared fetus washing medium. After centrifuging at 400 g for 4 minutes, a supernatant was removed therefrom and then 0.025% of trypsin and 10 ml of DNase1 were added to the pellets to break the pellets. The mixture was stored in an incubator for 15 minutes.
Thereafter, 15 ml of a cell culture medium was added thereto again, centrifuged at 400 g for 4 minutes, a supernatant was removed therefrom to obtain pellets, which were washed twice with 6 ml of a washing medium (including DNase 1), and then centrifuged again at 400 g for 4 minutes. After the centrifugation, the supernatant solution was removed again to obtain pellets, 10 ml of the culture medium was added to the pellets and a mixture obtained therefrom was mixed with 10 ul of trypan blue to count the cells by using a hemocytometer. In a 24-well plate, 500 ul of the cells were seeded in each well and then cultured for 48 hours. Thereafter, the culture medium was removed from the well plate for stabilization, a new cell culture medium and 5 uM Ara-c (cytosine arabinoside, sigma, C1768) were added thereto, cultured for […], the culture medium was removed again after 24 hours, a new culture medium was added thereto, and then cultured in an incubator having conditions of […], 5% CO2, and a temperature of 37° C. for the next experiment.
In a 96-well plate, cells were inoculated at a density of 2×10^4 cells/well and in an amount of 200 ul for each well. In this regard, cell confluence was set to be about 70% to about 80%. After 24 hours, when the cells have stabilized, a 26 or 28 gauge needle was used to remove a pre-existing medium from the wells. […]

“EPO: erythropoietin; the EPO used was an Eporon injection (Dong-A Pharmaceuticals, Korea)” was tested, and the “volume of cerebral infarction” value [1] was 246.27 ± 37.52 mm^3, the cell survival rate (neurocytes; EPO 1 IU/ml, serum removed, no 2-mercaptoethanol, 72 hours, normal culture = 100%) was 41.64% and the cell survival rate (neurocytes; EPO 1 U/ml, after exposure to 0.1% 2-mercaptoethanol for 18 hours) was 6.98%. The cell survival rate (neurocytes; EPO 10 IU/ml, serum removed, no 2-mercaptoethanol, 72 hours, normal culture = 100%) was 48.57% and the cell survival rate (neurocytes; EPO 10 U/ml, after exposure to 0.1% 2-mercaptoethanol for 18 hours) was 11.70%.
